The NIST ThermoML archive (doi:10.1016/j.jct.2014.03.023)

Experiments:
[1] = molar heat capacity at constant pressure; wn = mass fraction of the nth substance listed; details: 101 kPa, Liquid, Small sample (50 mg) DSC
[2] = wn = mass fraction of the nth substance listed; details: Pendant drop shape

CC[n+]1ccc(C)cc1.O=S(=O)([N-]S(=O)(=O)C(F)(F)F)C(F)(F)F + CCn1cc[n+](C)c1.N#CN=C=[N-]
Details | molar heat capacity at constant pressure, w2 = 0 [J/K/mol] | molar heat capacity at constant pressure, w2 = 0.25 [J/K/mol] | molar heat capacity at constant pressure, w2 = 0.5 [J/K/mol] | molar heat capacity at constant pressure, w2 = 0.75 [J/K/mol] | surface tension liquid-gas, w2 = 0 [mN/m] | surface tension liquid-gas, w2 = 0.25 [mN/m] | surface tension liquid-gas, w2 = 0.5 [mN/m] | surface tension liquid-gas, w2 = 0.75 [mN/m]
[1], 296.2 K | 627 | 504 | 421 | 363 | – | – | – | –
[1], 300.2 K | 634 | 509 | 425 | 366 | – | – | – | –
[1], 304.2 K | 637 | 512 | 427 | 369 | – | – | – | –
[1], 308.2 K | 640 | 514 | 430 | 371 | – | – | – | –
[1], 312.2 K | 644 | 517 | 433 | 374 | – | – | – | –
[1], 316.2 K | 647 | 520 | 436 | 376 | – | – | – | –
[1], 320.2 K | 649 | 522 | 438 | 378 | – | – | – | –
[1], 324.2 K | 652 | 524 | 441 | 381 | – | – | – | –
[1], 328.2 K | 655 | 528 | 444 | 383 | – | – | – | –
[1], 332.2 K | 659 | 532 | 448 | 387 | – | – | – | –
[1], 336.2 K | 665 | 537 | 451 | 390 | – | – | – | –
[1], 340.2 K | 669 | 541 | 455 | 393 | – | – | – | –
[1], 344.2 K | 674 | 546 | 459 | 397 | – | – | – | –
[1], 348.2 K | 679 | 550 | 463 | 400 | – | – | – | –
[1], 352.2 K | 685 | 555 | 467 | 404 | – | – | – | –
[1], 356.2 K | 691 | 560 | 472 | 407 | – | – | – | –
[1], 360.2 K | 697 | 565 | 477 | 411 | – | – | – | –
[1], 364.2 K | 703 | 570 | 481 | 415 | – | – | – | –
[1], 368.2 K | 708 | 576 | 486 | 419 | – | – | – | –
[1], 372.2 K | 715 | 584 | 492 | 424 | – | – | – | –
[2], 298.2 K | – | – | – | – | 24.3 | 40.8 | 45.8 | 52
[2], 303.2 K | – | – | – | – | 23.9 | 40.3 | 45.3 | 51.5
[2], 313.2 K | – | – | – | – | 23.1 | 39.2 | 44.1 | 50.3
[2], 323.2 K | – | – | – | – | 22.2 | 38 | 42.8 | 49
